Test results reported in patent publication US10851067B2, “Kv7 channel activators compositions and methods of use” (Knopp Biosciences LLC, priority 2018, dated 2020).

target: Kv7.2/7.3 (Homo sapiens, UniProt O43525+O43526); test: Kv7.2/7.3 Thallium Flux Assay; type: cell-based; set-up: host or cells: HEK cells, tetracycline-inducible expression; conditions: read-out: Kv7.2/7.3 Activity: EC50 of Kv7.2/Kv7.3 activation
Excerpt: The Thallium Flux Assay is used as a surrogate indicator of potassium channel activity.
The experimental protocol was adapted from the FluxOR™ II Green Potassium Ion Channel Assay User Guide (Pub. No. MAN0016084, Invitrogen). Conditions were optimized for the Kv7.2/7.3 cell line.
The hKV7.2/7.3 cell line was obtained from Chantest (Cleveland, Ohio 44128) cat. #CT6147.
Kv7.2/7.3 cells were maintained in a media containing DMEM/F12; 50/50 (GIBCO cat. #11330), 10% Fetal Bovine Serum (FBS) (GIBCO cat. #26140), 100 units/mL Penicillin-Streptomycin (GIBCO cat. #15140), 0.005 mg/ml Blasticidin (SIGMA 15205), 0.5 mg/mL Geneticin (GIBCO cat. #10131), and 0.1 mg/mL Zeocin (GIBCO cat. #R25001). One day prior to experimentation, cells were plated in 96 well clear bottom plates (Corning cat. #353219) in a media without Blasticidin, Geneticin, or Zeocin. Channel expression was induced by adding tetracycline (Bioline cat. #BIO87030) at a final concentration of 10 ng/mL.
The test compound is diluted in a mixture of 0.1% DMSO/extracellular solution with an eight-point concentration range from 0.014 μM to 30 μM. Serial dilutions were made on a Biomek NXP (BECKMAN COULTER).
Measurement and Data Analysis:
A plate reader (Enspire, Perkin Elmer) is used to characterize the ion-channel modulating properties of novel compounds using an excitation wavelength of 475 nm and an emission wavelength of 530 nm. After a 15 sec baseline measurement, the stimulus buffer containing thallium and potassium is injected. A final endpoint measure is taken after 90 sec. Responses are normalized to positive control (retigabine, 30 µM max). Mean normalized responses at each concentration tested are fit to the standard Hill equation to generate an EC50 and maximal response.

Compound	EC50
CC(C)(O)c1cc(F)c2nc(NC(=O)CC3CC(F)(F)C3(F)F)n(C3(C)CCC3)c2c1 (single isomer, unassigned) [Example 500, N-(4-fluoro-6-(2-hydroxypropan-2-yl)-1-(1-methylcyclobutyl)-1H-benzo[d]imidazol-2-yl)-2-(2,2,3,3-tetrafluorocyclobutyl)acetamide]	< 1000 nM
CC(C)(C)CC(=O)Nc1nc2c(F)cc(C#N)cc2n1C1(C)CCC1 [Example 495, N-(6-cyano-4-fluoro-1-(1-methylcyclobutyl)-1H-benzo[d]imidazol-2-yl)-3,3-dimethylbutanamide]	< 1000 nM
CC(C)(C)CC(=O)Nc1nc2ccc(C3(O)CCC3)c(C(F)(F)F)c2n1C1CCC1 [Example 490, N-(1-cyclobutyl-6-(1-hydroxycyclobutyl)-7-(trifluoromethyl)-1H-benzo[d]imidazol-2-yl)-3,3-dimethylbutanamide]	< 1000 nM
CC(C(=O)Nc1nc2c(F)cc(C(C)(C)O)cc2n1C1CCC1)C1(C(F)(F)F)CC1 (single isomer, unassigned) [Example 497, N-(1-cyclobutyl-4-fluoro-6-(2-hydroxypropan-2-yl)-1H-benzo[d]imidazol-2-yl)-2-(1-(trifluoromethyl)cyclopropyl)propanamide]	< 1000 nM
CC(C)(CC(=O)Nc1nc2ccc(C#N)cc2n1C1CCC1)c1ccccn1 [Example 518, N-(6-cyano-1-cyclobutyl-1H-benzo[d]imidazol-2-yl)-3-methyl-3-(pyridin-2-yl)butanamide]	1000 to 3000 nM
CC1(n2c(NC(=O)CC3CC(F)(F)C3(F)F)nc3c(F)cc(C#N)cc32)CCC1 (single isomer, unassigned) [Example 512, N-(6-cyano-4-fluoro-1-(1-methylcyclobutyl)-1H-benzo[d]imidazol-2-yl)-2-(2,2,3,3-tetrafluorocyclobutyl)acetamide]	< 1000 nM
CC(C)(C)n1c(NC(=O)CC2CC(F)(F)C2(F)F)nc2c(F)cc(C#N)c(F)c21 (single isomer, unassigned) [Example 496, N-(1-(tert-butyl)-6-cyano-4,7-difluoro-1H-benzo[d]imidazol-2-yl)-2-(2,2,3,3-tetrafluorocyclobutyl)acetamide]	< 1000 nM
CC(C)(C)n1c(NC(=O)CC2CC(F)(F)C2(F)F)nc2cc(F)ccc21 (single isomer, unassigned) [Example 528, N-(1-(tert-butyl)-5-fluoro-1H-benzo[d]imidazol-2-yl)-2-(2,2,3,3-tetrafluorocyclobutyl)acetamide]	< 1000 nM
CC1(n2c(NC(=O)CC3CC(F)(F)C3(F)F)nc3cc(F)ccc32)CCC1 (single isomer, unassigned) [Example 525, N-(5-fluoro-1-(1-methylcyclobutyl)-1H-benzo[d]imidazol-2-yl)-2-(2,2,3,3-tetrafluorocyclobutyl)acetamide]	< 1000 nM
CC(C)(C)CC(=O)Nc1nc2ccc(C#N)c(C(F)(F)F)c2n1C1CCC1 [Example 507, N-(6-cyano-1-cyclobutyl-7-(trifluoromethyl)-1H-benzo[d]imidazol-2-yl)-3,3-dimethylbutanamide]	< 1000 nM
COc1cc(C#N)cc2c1nc(NC(=O)CC1CC(F)(F)C1(F)F)n2C(C)(C)C (single isomer, unassigned) [Example 506, N-(1-(tert-butyl)-6-cyano-4-methoxy-1H-benzo[d]imidazol-2-yl)-2-(2,2,3,3-tetrafluorocyclobutyl)acetamide]	< 1000 nM

Further lines, results first:

EC50	Compound
< 1000 nM	CC(C)(C)CC(=O)Nc1nc2ccc(F)c(Br)c2n1C1(C)CCC1 [Example 550, N-(7-bromo-6-fluoro-1-(1-methylcyclobutyl)-1H-benzo[d]imidazol-2-yl)-3,3-dimethylbutanamide]
< 1000 nM	CC1(n2c(NC(=O)CC3CC(F)(F)C3(F)F)nc3ccc(F)c(Br)c32)CCC1 (single isomer, unassigned) [Example 549, N-(7-bromo-6-fluoro-1-(1-methylcyclobutyl)-1H-benzo[d]imidazol-2-yl)-2-(2,2,3,3-tetrafluorocyclobutyl)acetamide]
< 1000 nM	CC1(n2c(NC(=O)CC3CC(F)(F)C3(F)F)nc3c(F)ccc(C#N)c32)CCC1 (single isomer, unassigned) [Example 548, N-(7-cyano-4-fluoro-1-(1-methylcyclobutyl)-1H-benzo[d]imidazol-2-yl)-2-(2,2,3,3-tetrafluorocyclobutyl)acetamide]
< 1000 nM	CC(C)(C)n1c(NC(=O)CC2CC(F)(F)C2(F)F)nc2cc(F)cc(F)c21 (single isomer, unassigned) [Example 532, N-(1-(tert-butyl)-5,7-difluoro-1H-benzo[d]imidazol-2-yl)-2-(2,2,3,3-tetrafluorocyclobutyl)acetamide]
< 1000 nM	CC(C)(C)n1c(NC(=O)CC(C)(C)C(F)(F)F)nc2cc(F)cc(F)c21 [Example 530, N-(1-(tert-butyl)-5,7-difluoro-1H-benzo[d]imidazol-2-yl)-4,4,4-trifluoro-3,3-dimethylbutanamide]
< 1000 nM	CC1(n2c(NC(=O)CC3CC(F)(F)C3(F)F)nc3cc(F)cc(C#N)c32)CCC1 (single isomer, unassigned) [Example 545, N-(7-cyano-5-fluoro-1-(1-methylcyclobutyl)-1H-benzo[d]imidazol-2-yl)-2-(2,2,3,3-tetrafluorocyclobutyl)acetamide]
< 1000 nM	CC(C)(CC(=O)Nc1nc2ccc(F)c(C#N)c2n1C1(C)CCC1)C1CC1 [Example 541, N-(7-cyano-6-fluoro-1-(1-methylcyclobutyl)-1H-benzo[d]imidazol-2-yl)-3-cyclopropyl-3-methylbutanamide]
< 1000 nM	CC(C(=O)Nc1nc2ccc(Cl)c(F)c2n1C1(C)CCC1)C1(C(F)(F)F)CC1 (single isomer, unassigned) [Example 556, N-(6-chloro-7-fluoro-1-(1-methylcyclobutyl)-1H-benzo[d]imidazol-2-yl)-2-(1-(trifluoromethyl)cyclopropyl)propanamide]
< 1000 nM	CC(C(=O)Nc1nc2c(F)cc(C#N)c(F)c2n1C1(C)CCC1)C1(C(F)(F)F)CC1 (single isomer, unassigned) [Example 544, N-(6-cyano-4,7-difluoro-1-(1-methylcyclobutyl)-1H-benzo[d]imidazol-2-yl)-2-(1-(trifluoromethyl)cyclopropyl)propanamide]
1000 to 3000 nM	CC(C)(C)n1c(NC(=O)CC2CC(F)(F)C2(F)F)nc2cc(F)c(F)cc21 (single isomer, unassigned) [Example 558, N-(1-(tert-butyl)-5,6-difluoro-1H-benzo[d]imidazol-2-yl)-2-(2,2,3,3-tetrafluorocyclobutyl)acetamide]
< 1000 nM	CC(C(=O)Nc1nc2c(F)cc(C#N)c(F)c2n1C1(C)CCC1)C1(C(F)(F)F)CC1 (single isomer, unassigned) [Example 543, N-(6-cyano-4,7-difluoro-1-(1-methylcyclobutyl)-1H-benzo[d]imidazol-2-yl)-2-(1-(trifluoromethyl)cyclopropyl)propanamide]
< 1000 nM	CC1(n2c(NC(=O)CC3CC(F)(F)C3(F)F)nc3cc(F)c(F)c(F)c32)CCC1 (single isomer, unassigned) [Example 559, 2-(2,2,3,3-tetrafluorocyclobutyl)-N-(5,6,7-trifluoro-1-(1-methylcyclobutyl)-1H-benzo[d]imidazol-2-yl)acetamide]
